In patent US20050142160A1, “ACTIVE ATTRACTANT COMPOSITION FOR INSECTS” (priority 2003, published 2005):

Columns and labels:
[1] = test system: houseflies (musca domestica); test: Test-room trap choice experiment, attractants compared with the standard (% of total flies caught); assay type: in vivo; conditions: for % Catch: Table 3, TMA/Z-9 and the combination; for attractiveness to flies (in words): attractant judged by itself or against a named alternative; for effect on the attractancy of the standard TMA/Z-9 when combined (in words): in combination with trimethylamine and Z-9-tricosene
Description: The trimethylamine (TMA) solution was prepared freshly for each experiment by dissolving a known amount of trimethylamine in a solution of sodium bicarbonate in water, to make 6 milliliters total volume. […] Additional attractants were placed in a third jar lid, or otherwise dispersed separately in the lower compartment of the test traps, for comparison against the standard. A testing room approximately 10 feet by 15 feet was furnished with folding tables on which to place the traps. In such a room was placed a total of six traps, two each of the control, the new attractant, and a combination of control+new attractant. Flies were raised from fly pupae, purchased from Beneficial […], California in a separate room under controlled conditions. For each experiment, after setting up the test traps, around 200 flies were introduced into the room for an 18-24 hour period, and observations were made periodically. At the end of each experiment, flies were counted in each trap, and the remaining flies not trapped were counted in order to account for all flies. In most cases, the remaining flies not caught had expired and were found on the floor of the testing suite. The data are reported for each trap as the percentage of the total flies caught, ignoring the flies not caught. It was observed that a percentage of the initially released flies were always weaker than the main population, and would quickly move toward the floor. Thus, only healthy, active flies were caught, since they were still foraging and seeking mating partners. The experiments were repeated daily, randomly rotating the relative positions of traps in the room with respect to their contents, such that positional effects in the room would be averaged out over many repetitions of the experiment. The results of each experiment, one per day, over one to two weeks, were totaled, and the total catch per attractant type were reported as percentage of catch (% catch).

flies = test: Comparison of muscalure against other fly attractants; assay type: in vivo; conditions: compared against other fly attractants; no method given

CC(=O)O [Acetic Acid, Acetic acid]
% Catch ([1]; choice between acetic acid): 7% | attractiveness to flies (in words) [1]: weak attractant | effect on the attractancy of the standard TMA/Z-9 when combined (in words) [1]: no effect on the attractancy of TMA/Z-9

C=CC(O)CCCCC (stereo not drawn) [Attractant 1-octen-3-ol, 1-octen-3-ol]
% Catch ([1]; choice between 1-octen-3-ol): 0% | attractiveness to flies (in words) [1]: non-attractive or repellent to flies | effect on the attractancy of the standard TMA/Z-9 when combined (in words) [1]: lowered the overall relative catch

CCO [Ethanol]
% Catch ([1]; choice between ethanol): 7% | attractiveness to flies (in words) [1]: weak attractant | effect on the attractancy of the standard TMA/Z-9 when combined (in words) [1]: no statistically significant effect on the attractancy of the standard

CCCC(=O)O [butyric acid]
effect on the attractancy of the standard TMA/Z-9 when combined (in words) [1]: increases the attractiveness of the attractant combination

CCCCCCCC/C=C\CCCCCCCCCCCCC [muscalure, Z-9-tricosene]
attractiveness to flies (in words) (flies): weak fly attractant

Z-9-epoxytricosene [Attractant Z-9-Epoxy]
attractiveness to flies (in words) [1]: no more attractive than Z-9-tricosene
